Experimental data reported in PMC10349828, “Mechanistic investigation of a D to N mutation in DAHP synthase that dictates carbon flux into the shikimate pathway in yeast” (Communications Chemistry, 2023).

Tests used:
Aro3 [1] = molecular target: T1, Aro3 (Saccharomyces cerevisiae, UniProt P14843); experiment: isothermal titration calorimetry; type: binding
T1 construct: full-length ORF in pET21, C-terminal His6 tag, expressed in E. coli Rosetta 2 (DE3); Ni-NTA and gel filtration; dimer in crystal
T1 sequence (P14843 whole entry): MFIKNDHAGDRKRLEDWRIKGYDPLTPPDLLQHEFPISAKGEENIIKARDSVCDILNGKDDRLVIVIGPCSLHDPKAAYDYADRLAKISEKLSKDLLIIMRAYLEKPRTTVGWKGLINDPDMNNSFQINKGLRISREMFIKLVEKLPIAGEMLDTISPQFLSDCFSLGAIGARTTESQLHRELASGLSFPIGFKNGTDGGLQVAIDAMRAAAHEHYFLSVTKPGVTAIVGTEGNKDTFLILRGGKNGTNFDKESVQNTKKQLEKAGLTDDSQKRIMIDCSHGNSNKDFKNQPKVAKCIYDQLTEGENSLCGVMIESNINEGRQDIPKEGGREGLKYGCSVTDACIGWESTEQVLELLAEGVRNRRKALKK

Aro3 [2] = molecular target: T2, Aro3 (Saccharomyces cerevisiae, UniProt P14843, K222L); experiment: DAHP formation, periodate-thiobarbituric acid assay at […] nm; type: biochemical; settings: read-out: % inhibition at 0.1 mM
T2 construct: full-length ORF in pET21, C-terminal His6 tag, expressed in E. coli Rosetta 2 (DE3); Ni-NTA and gel filtration; dimer in crystal
T2 sequence (P14843 whole entry K222L): as the sequence (P14843 whole entry) above, with K222L counted along it

Aro3 [3] = molecular target: T3, Aro3 (Saccharomyces cerevisiae, UniProt P14843, D154N); experiment: isothermal titration calorimetry; type: binding
T3 construct: full-length ORF in pET21, C-terminal His6 tag, expressed in E. coli Rosetta 2 (DE3); Ni-NTA and gel filtration; dimer in crystal
T3 sequence (P14843 whole entry D154N): as the sequence (P14843 whole entry) above, with D154N counted along it

Aro3 [4] = molecular target: T1, Aro3; experiment: DAHP formation, periodate-thiobarbituric acid assay at […] nm; type: biochemical; settings: read-out: % inhibition at 0.1 mM
Aro3 [5] = molecular target: T3, Aro3; experiment: as above; type: biochemical; settings: read-out: % remaining activity at 10 mM

**Q.** Which results are given for `N[C@@H](Cc1ccccc1)C(=O)O` [L-Phe]?
**A.** Kd (Aro3 [1]): 31.4 µM; inhibition at 100 µM (Aro3 [2]): ~50%; Kd (Aro3 [3]): 336 ± 31.2 µM; inhibition at 100 µM (Aro3 [4]): ~50%; remaining activity at 10000 µM (Aro3 [5]): 71.2%
